Active and inactive are the calls of the source. The rule behind the calls is not given here.
How the values were obtained:
[1] = target: T1, Amyloid-beta precursor protein (Homo sapiens, UniProt P05067); test: Binding affinity to human amyloid beta plaque
P-gp (Homo sapiens) = test: Activity at human P-gp expressed in pig LLC-PK1 cells assessed as passive apparent permeability
P-gp = test: Activity at human P-gp expressed in LLC-PK1 cells assessed as efflux ratio of apparent permeability; type: ADME, cell-based
[2] = target: T1, Amyloid-beta precursor protein; test: […] amyloid beta plaque in cortex homogenate isolated from Alzheimer disease patient after 90 mins by scintillation counting; type: tissue-based; conditions: for Bmax: tested as the 3H-labelled form
[3] = target: T1, Amyloid-beta precursor protein; test: […] amyloid beta plaque in cortex homogenate isolated from Alzheimer disease patient at 9.6 nM after 90 mins by scintillation counting in presence of 5-Fluoro-2-(1-methyl-1H-pyrrolo[2,3-b]pyridin-5-yl)-oxazolo[5,4-b]pyridine; type: tissue-based; conditions: tested as the 3H-labelled form
[4] = target: T1, Amyloid-beta precursor protein; test: Ratio of Bmax to Kd for amyloid beta plaque in cortex homogenate isolated from Alzheimer disease patient; type: tissue-based; conditions: tested as the 3H-labelled form
[5] = target: T1, Amyloid-beta precursor protein; test: Binding affinity to amyloid beta plaque in cortex homogenate isolated from Alzheimer disease patient at 5 nM after 90 mins by autoradiography; type: tissue-based; conditions: tested as the 3H-labelled form
[6] = target: T1, Amyloid-beta precursor protein; test: […] amyloid beta plaque in cortex homogenate isolated from Alzheimer disease patient at 4.2 nM after 90 mins by scintillation counting in presence of [4-(5-Fluoro-oxazolo[5,4-b]pyridin-2-yl)-phenyl]-dimethyl-amine; type: tissue-based; conditions: tested as the 3H-labelled form
[7] = Drug uptake in rhesus monkey cerebellum after 90 mins; type: ADME, tissue-based, Macaca mulatta; conditions: in vivo, 1.5 h
[8] = Drug uptake in rhesus monkey cortex after 90 mins; type: ADME, tissue-based, Macaca mulatta; conditions: in vivo, 1.5 h
[9] = Drug uptake in rhesus monkey cortex up to 90 mins; type: ADME, tissue-based, Macaca mulatta; conditions: in vivo, 1.5 h
[10] = Drug uptake in rhesus monkey cerebellum up to 90 mins; type: ADME, tissue-based, Macaca mulatta; conditions: in vivo, 1.5 h
Brain = test: Drug uptake in rhesus monkey brain white matter up to 90 mins; type: ADME, tissue-based, Macaca mulatta; conditions: in vivo, 1.5 h
[11] = target: T1, Amyloid-beta precursor protein; test: […] amyloid beta plaque in cortex homogenate isolated from Alzheimer disease patient at 6.4 nM after 90 mins by scintillation counting in presence of 5-Fluoro-2-(1-methyl-1H-indol-5-yl)-oxazolo[5,4-b]pyridine; type: tissue-based; conditions: tested as the 3H-labelled form

T1 sequence (P05067 whole entry): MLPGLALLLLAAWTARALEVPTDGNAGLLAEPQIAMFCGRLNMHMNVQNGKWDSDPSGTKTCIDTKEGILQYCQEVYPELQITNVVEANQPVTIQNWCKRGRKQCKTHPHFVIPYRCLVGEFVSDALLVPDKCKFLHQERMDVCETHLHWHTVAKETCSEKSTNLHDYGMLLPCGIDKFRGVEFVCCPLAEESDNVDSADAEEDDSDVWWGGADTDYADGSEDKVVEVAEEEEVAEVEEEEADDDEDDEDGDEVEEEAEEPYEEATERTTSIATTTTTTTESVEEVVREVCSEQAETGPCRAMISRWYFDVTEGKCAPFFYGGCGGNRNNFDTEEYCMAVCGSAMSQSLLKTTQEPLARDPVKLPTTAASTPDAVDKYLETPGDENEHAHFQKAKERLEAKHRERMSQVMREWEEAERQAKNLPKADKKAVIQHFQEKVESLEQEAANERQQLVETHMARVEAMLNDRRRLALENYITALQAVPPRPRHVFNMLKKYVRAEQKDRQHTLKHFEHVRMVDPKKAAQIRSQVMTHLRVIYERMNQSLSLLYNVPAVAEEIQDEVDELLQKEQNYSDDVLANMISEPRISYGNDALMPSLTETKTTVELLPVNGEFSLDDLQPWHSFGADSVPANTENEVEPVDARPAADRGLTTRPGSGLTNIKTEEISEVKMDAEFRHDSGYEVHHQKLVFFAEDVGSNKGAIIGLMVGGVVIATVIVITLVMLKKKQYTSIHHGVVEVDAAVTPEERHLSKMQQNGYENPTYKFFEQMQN

IC50 [1] [nM] | Papp (P-gp (Homo sapiens)) [×10⁻⁶ cm/s] | efflux ratio (P-gp) | SMILES | further results
25.7 | > 20 | < 3 | Fc1ccc2nc(-c3cnc4[nH]ccc4c3)oc2n1 | –
10.5 | > 20 | < 3 | Cn1ccc2cc(-c3nc4ccc(F)nc4o3)cnc21 | Bmax [2]: 1100 nM; Activity [3]: 35%; Ratio [4]: 117; Activity [5]: Active
4 | > 20 | < 3 | CN(C)c1ccc(-c2nc3ccc(F)nc3o2)cc1 | Bmax [2]: 2090 nM; Ratio [4]: 464; Activity [5]: Active; Activity [6]: 50%
– | – | – | [3H]C([3H])([3H])N(C)c1ccc(-c2nc3ccc(F)nc3o2)cc1 | Kd [2]: 4.5 nM
> 1000 | > 20 | < 3 | Cn1cnc2cc(-c3nc4ccc(F)nc4o3)ccc21 | –
102 | > 20 | < 3 | CNc1ccc(-c2nc3ccc(F)nc3o2)cn1 | –
– | – | – | [3H]C([3H])([3H])n1ccc2cc(-c3nc4ccc(F)nc4o3)ccc21 | Kd [2]: 6.4 nM
– | – | – | Cn1ccc2cc(-c3nc4ccc([18F])nc4o3)cnc21 | Drug uptake [7]: Not Active; Drug uptake [8]: Not Active; SUV [9]: 2.7; SUV [10]: 3; Drug uptake (Brain): Not Active
41.8 | > 20 | < 3 | CN(C)c1ccc(-c2nc3ccc(F)nc3o2)cn1 | –
48.7 | > 20 | < 3 | Cn1ncc2cc(-c3nc4ccc(F)nc4o3)ccc21 | –
30.2 | > 20 | < 3 | Cn1ncc2cc(-c3nc4ccc(F)nc4o3)cnc21 | –
32.5 | > 20 | < 3 | COc1ccc(-c2nc3ccc(F)nc3o2)cc1 | –
35.8 | > 20 | < 3 | Fc1ccc2nc(-c3ccc4ncsc4c3)oc2n1 | –
45.3 | > 20 | < 3 | Fc1ccc2nc(-c3ccc4cc[nH]c4c3)oc2n1 | –
> 1000 | > 20 | < 3 | Cn1ccc2cc(-c3nc4ccc(F)nc4o3)ncc21 | –
– | – | – | [3H]C([3H])([3H])n1ccc2cc(-c3nc4ccc(F)nc4o3)cnc21 | Kd [2]: 9.6 nM
23.1 | > 20 | < 3 | CNc1ccc(-c2nc3ccc(F)nc3o2)cc1 | –
47 | > 20 | < 3 | CN1CCc2cc(-c3nc4ccc(F)nc4o3)cnc21 | –
13.8 | > 20 | < 3 | Fc1ccc2nc(-c3ccc4[nH]ccc4c3)oc2n1 | –
8 | > 20 | < 3 | Cn1ccc2cc(-c3nc4ccc(F)nc4o3)ccc21 | Bmax [2]: 1450 nM; Activity [11]: 50%; Ratio [4]: 232; Activity [5]: inactive
